ChEMBL document CHEMBL2150919, “Benzenesulfonyl and Benzenesulfonamide as Modulators of the 5-HT6 Receptor: Patent Highlight” (ACS Med Chem Lett, 2012)

Each compound was assayed against 5-hydroxytryptamine receptor 6 (Homo sapiens, UniProt P50406) (assay: Displacement of [3H]-lysergic acid diethylamine from human recombinant 5-HT6 receptor).
Sequence of 5-hydroxytryptamine receptor 6 (P50406 whole entry): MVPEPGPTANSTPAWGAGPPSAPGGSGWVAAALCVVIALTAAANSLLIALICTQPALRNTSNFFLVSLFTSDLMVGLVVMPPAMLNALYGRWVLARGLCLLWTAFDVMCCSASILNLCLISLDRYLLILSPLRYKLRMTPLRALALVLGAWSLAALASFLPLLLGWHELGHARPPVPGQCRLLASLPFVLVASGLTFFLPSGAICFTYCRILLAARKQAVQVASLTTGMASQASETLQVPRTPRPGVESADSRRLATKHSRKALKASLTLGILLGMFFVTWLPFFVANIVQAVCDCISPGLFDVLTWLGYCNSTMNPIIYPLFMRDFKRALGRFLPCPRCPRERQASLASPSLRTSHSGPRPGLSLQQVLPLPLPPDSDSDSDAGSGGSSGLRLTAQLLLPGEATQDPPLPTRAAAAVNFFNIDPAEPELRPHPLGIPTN

How did the Ki turn out when COCc1cccc(NS(=O)(=O)c2ccc(OC)c(N3CCNCC3)c2)c1 was run?
The Ki was under 0.01 µM.

For COCc1cccc(NS(=O)(=O)c2ccc(C)c(N3CCN(C)CC3)c2)c1, which Ki is on record?
The Ki was under 0.1 µM.

With COc1ccc(S(=O)(=O)Nc2cccc(COCC(F)(F)F)c2)cc1N1CCNCC1 as the compound, how does the Ki read?
Its Ki is under 0.01 µM.

For COc1ccc(S(=O)(=O)Nc2cccc(C(C)OC)c2)cc1N1CCNCC1 (stereo not drawn), which Ki is on record?
The Ki was under 0.02 µM.

COCc1ccccc1NS(=O)(=O)c1ccc(C)c(N2CCN(C)CC2)c1 was tested. Which Ki did it give?
The Ki was under 0.1 µM.

With COCc1ccccc1NS(=O)(=O)c1ccc(OC)c(N2CCN(C)CC2)c1 as the compound, how does the Ki read?
The Ki was under 0.01 µM.

For COCc1cccc(N(C)S(=O)(=O)c2ccc(OC)c(N3CCNCC3)c2)c1, which Ki is on record?
Its Ki is under 0.1 µM.

Which Ki does the source give for CCOc1ccc(S(=O)(=O)Nc2ccccc2COC)cc1N1CCN(C)CC1 here?
Its Ki is under 0.01 µM.

COCc1cccc(NS(=O)(=O)c2ccc(C)c(N3CCNCC3)c2)c1 was tested. Which Ki did it give?
Its Ki is under 0.01 µM.

COCc1cccc(NS(=O)(=O)c2ccc(OC)c(N3CCCNCC3)c2)c1 was tested. Which Ki did it give?
Its Ki is under 0.02 µM.

With COCc1cccc(NS(=O)(=O)c2ccc(OC)c(N3CCN(C)CC3)c2)c1 as the compound, how does the Ki read?
Its Ki is under 0.01 µM.

With CCOCc1cccc(NS(=O)(=O)c2ccc(OC)c(N3CCNCC3)c2)c1 as the compound, how does the Ki read?
The Ki was under 0.01 µM.

COCc1ccccc1NS(=O)(=O)c1ccc(OC)c(N2CCNCC2)c1 was tested. Which Ki did it give?
The Ki was under 0.01 µM.

Which Ki does the source give for COCc1ccccc1NS(=O)(=O)c1ccc(C)c(N2CCNCC2)c1 here?
Its Ki is under 0.1 µM.

Which Ki does the source give for CCOc1ccc(S(=O)(=O)Nc2cccc(COC)c2)cc1N1CCN(C)CC1 here?
The Ki was under 0.01 µM.

With CCOc1ccc(S(=O)(=O)Nc2ccccc2COC)cc1N1CCNCC1 as the compound, how does the Ki read?
Its Ki is under 0.01 µM.

How did the Ki turn out when CCOc1ccc(S(=O)(=O)Nc2cccc(COC)c2)cc1N1CCNCC1 was run?
The Ki was under 0.01 µM.

COCc1ccc(NS(=O)(=O)c2ccc(OC)c(N3CCNCC3)c2)cc1 was tested. Which Ki did it give?
Its Ki is under 0.1 µM.
